tested on: MCH receptors; assay: MCH receptor activity class (method not given); settings: class by percent of control at 10^-7 M or IC50

Compound | class
Cc1cc(C)c(C(=O)C(=O)N[C@H]2CC[C@@H](Nc3nccc(N(C)C)n3)CC2)c(C)c1 [compound 914, N-(cis-4-{[4-(dimethylamino)pyrimidin-2-yl]amino}cyclohexyl)-2-mesityl-2-oxoacetamide] | 2 (Class 2: The value of percent of control at 10^−7 M was from 40% to 60% or the value of IC′50 was from 50 nM to 200 nM.)
CN(C)c1ccnc(N[C@H]2CC[C@@H](NC(=O)c3cnc4ccccc4c3)CC2)n1 [compound 915] | 3 (Class 3 The value of percent of control at 10^−7 M was more than 60% or the value of IC50 was more than 200 nM.)
CN(C)c1ccnc(N[C@H]2CC[C@@H](NC(=O)c3ccc4ncsc4c3)CC2)n1 [compound 918] | 3 (Class 3 The value of percent of control at 10^−7 M was more than 60% or the value of IC50 was more than 200 nM.)
CN(C)c1ccnc(N[C@H]2CC[C@@H](NC(=O)c3cc(Cl)ccc3O)CC2)n1 [compound 919] | 3 (Class 3 The value of percent of control at 10^−7 M was more than 60% or the value of IC50 was more than 200 nM.)
CSc1ccc(Cl)c(C(=O)N[C@H]2CC[C@@H](Nc3nccc(N(C)C)n3)CC2)c1 [compound 920] | 3 (Class 3 The value of percent of control at 10^−7 M was more than 60% or the value of IC50 was more than 200 nM.)
COc1cccc2cc(C(=O)N[C@H]3CC[C@@H](Nc4nccc(N(C)C)n4)CC3)oc12 [compound 921] | 3 (Class 3 The value of percent of control at 10^−7 M was more than 60% or the value of IC50 was more than 200 nM.)
Cc1cccc(C(=O)N[C@H]2CC[C@@H](Nc3nccc(N(C)C)n3)CC2)c1N [compound 922] | 3 (Class 3 The value of percent of control at 10^−7 M was more than 60% or the value of IC50 was more than 200 nM.)
C=CCSc1ncccc1C(=O)N[C@H]1CC[C@@H](Nc2nccc(N(C)C)n2)CC1 [compound 923] | 3 (Class 3 The value of percent of control at 10^−7 M was more than 60% or the value of IC50 was more than 200 nM.)
CN(C)c1ccnc(N[C@H]2CC[C@@H](NC(=O)c3cc(C(C)(C)C)c(O)c(C(C)(C)C)c3)CC2)n1 [compound 924] | 1 (Class 1: The value of percent of control at 10^−7 M was less than 40% or the value of IC50 was less than 50 nM.)
CN(C)c1ccnc(N[C@H]2CC[C@@H](CNC(=O)c3ccc(Br)s3)CC2)n1 [compound 925] | 3 (Class 3 The value of percent of control at 10^−7 M was more than 60% or the value of IC50 was more than 200 nM.)
CN(C)c1ccnc(N[C@H]2CC[C@@H](CNC(=O)Cc3c(Cl)ccc(Cl)c3Cl)CC2)n1 [compound 926, N-[(cis-4-{[4-(dimethylamino)pyrimidin-2-yl]amino}cyclohexyl)methyl]-2-(2,3,6-trichlorophenyl)acetamide] | 1 (Class 1: The value of percent of control at 10^−7 M was less than 40% or the value of IC50 was less than 50 nM.)
CN(C)c1ccnc(N[C@H]2CC[C@@H](CNC(=O)Cc3ccc(F)cc3Cl)CC2)n1 [compound 927] | 3 (Class 3 The value of percent of control at 10^−7 M was more than 60% or the value of IC50 was more than 200 nM.)
CN(C)c1ccnc(N[C@H]2CC[C@@H](CNC(=O)c3ccc(-c4ccc(Cl)cc4[N+](=O)[O-])o3)CC2)n1 [compound 928] | 3 (Class 3 The value of percent of control at 10^−7 M was more than 60% or the value of IC50 was more than 200 nM.)
CN(C)c1ccnc(N[C@H]2CC[C@@H](CNC(=O)c3ccc(Cl)s3)CC2)n1 [compound 929] | 3 (Class 3 The value of percent of control at 10^−7 M was more than 60% or the value of IC50 was more than 200 nM.)
CN(C)c1ccnc(N[C@H]2CC[C@@H](CNC(=O)CCc3ccccc3O)CC2)n1 [compound 931] | 3 (Class 3 The value of percent of control at 10^−7 M was more than 60% or the value of IC50 was more than 200 nM.)
CN(C)c1ccnc(N[C@H]2CC[C@@H](CNC(=O)c3ccc(I)o3)CC2)n1 [compound 932, N-[(cis-4-{[4-(dimethylamino)pyrimidin-2-yl]amino}cyclohexyl)methyl]-5-iodo-2-furamide] | 2 (Class 2: The value of percent of control at 10^−7 M was from 40% to 60% or the value of IC′50 was from 50 nM to 200 nM.)
COc1ccc2[nH]c(C)c(CC(=O)NC[C@H]3CC[C@@H](Nc4nccc(N(C)C)n4)CC3)c2c1 [compound 933] | 3 (Class 3 The value of percent of control at 10^−7 M was more than 60% or the value of IC50 was more than 200 nM.)
CN(C)c1ccnc(N[C@H]2CC[C@@H](CNC(=O)/C=C/c3cccc([N+](=O)[O-])c3)CC2)n1 [compound 934] | 1 (Class 1: The value of percent of control at 10^−7 M was less than 40% or the value of IC50 was less than 50 nM.)
CN(C)c1ccnc(N[C@H]2CC[C@@H](CNC(=O)c3ccccc3Cc3ccccc3)CC2)n1 [compound 936] | 2 (Class 2: The value of percent of control at 10^−7 M was from 40% to 60% or the value of IC′50 was from 50 nM to 200 nM.)

Compound | class
CN(C)c1ccnc(N[C@H]2CC[C@@H](CNC(=O)C(c3ccc(Cl)cc3)c3ccc(Cl)cc3)CC2)n1 [compound 937, 2,2-bis(4-chlorophenyl)-N-[(cis-4-{[4-(dimethylamino)pyrimidin-2-yl]amino}cyclohexyl)methyl]acetamide] | 1 (Class 1: The value of percent of control at 10^−7 M was less than 40% or the value of IC50 was less than 50 nM.)
Cc1ccc(-c2ccc(C(=O)NC[C@H]3CC[C@@H](Nc4nccc(N(C)C)n4)CC3)o2)c([N+](=O)[O-])c1 [compound 938] | 3 (Class 3 The value of percent of control at 10^−7 M was more than 60% or the value of IC50 was more than 200 nM.)
CN(C)c1ccnc(N[C@H]2CC[C@@H](CNC(=O)c3ccc([N+](=O)[O-])s3)CC2)n1 [compound 939] | 3 (Class 3 The value of percent of control at 10^−7 M was more than 60% or the value of IC50 was more than 200 nM.)
Cc1cc(C(=O)NC[C@H]2CC[C@@H](Nc3nccc(N(C)C)n3)CC2)ccc1[N+](=O)[O-] [compound 940, N-[(cis-4-{[4-(dimethylamino)pyrimidin-2-yl]amino}cyclohexyl)methyl]-3-methyl-4-nitrobenzamide] | 1 (Class 1: The value of percent of control at 10^−7 M was less than 40% or the value of IC50 was less than 50 nM.)
COc1cc(C(=O)NC[C@H]2CC[C@@H](Nc3nccc(N(C)C)n3)CC2)ccc1[N+](=O)[O-] [compound 941, N-[(cis-4-{[4-(dimethylamino)pyrimidin-2-yl]amino}cyclohexyl)methyl]-3-methoxy-4-nitrobenzamide] | 1 (Class 1: The value of percent of control at 10^−7 M was less than 40% or the value of IC50 was less than 50 nM.)
CN(C)c1ccnc(N[C@H]2CC[C@@H](CNC(=O)c3cn(Cc4ccccc4)c4ccccc34)CC2)n1 [compound 942] | 3 (Class 3 The value of percent of control at 10^−7 M was more than 60% or the value of IC50 was more than 200 nM.)
CN(C)c1ccnc(N[C@H]2CC[C@@H](CNC(=O)CC3=CCCCC3)CC2)n1 [compound 943] | 3 (Class 3 The value of percent of control at 10^−7 M was more than 60% or the value of IC50 was more than 200 nM.)
CN(C)c1ccnc(N[C@H]2CC[C@@H](CNC(=O)Cc3ccccc3OC(F)(F)F)CC2)n1 [compound 945] | 1 (Class 1: The value of percent of control at 10^−7 M was less than 40% or the value of IC50 was less than 50 nM.)
Cc1cc(C(=O)NC[C@H]2CC[C@@H](Nc3nccc(N(C)C)n3)CC2)cc(C)c1OCc1ccccc1 [compound 946] | 3 (Class 3 The value of percent of control at 10^−7 M was more than 60% or the value of IC50 was more than 200 nM.)
CN(C)c1ccnc(N[C@H]2CC[C@@H](CNC(=O)C3c4ccccc4Oc4ccccc43)CC2)n1 [compound 947, N-[(cis-4-{[4-(dimethylamino)pyrimidin-2-yl]amino}cyclohexyl)methyl]-9H-xanthene-9-carboxamide] | 1 (Class 1: The value of percent of control at 10^−7 M was less than 40% or the value of IC50 was less than 50 nM.)
CN(C)c1ccnc(N[C@H]2CC[C@@H](CNC(=O)Cc3csc4ccccc34)CC2)n1 [compound 948] | 1 (Class 1: The value of percent of control at 10^−7 M was less than 40% or the value of IC50 was less than 50 nM.)
CN(C)c1nc(N[C@H]2CC[C@@H](NC(=O)c3ccc(Br)s3)CC2)nc2c1CCCC2 [compound 949] | 2 (Class 2: The value of percent of control at 10^−7 M was from 40% to 60% or the value of IC′50 was from 50 nM to 200 nM.)
CN(C)c1nc(N[C@H]2CC[C@@H](NC(=O)Cc3c(Cl)ccc(Cl)c3Cl)CC2)nc2c1CCCC2 [compound 950] | 2 (Class 2: The value of percent of control at 10^−7 M was from 40% to 60% or the value of IC′50 was from 50 nM to 200 nM.)
CN(C)c1nc(N[C@H]2CC[C@@H](NC(=O)Cc3ccc(F)cc3Cl)CC2)nc2c1CCCC2 [compound 951, 2-(2-chloro-4-fluorophenyl)-N-(cis-4-{[4-(dimethylamino)-5,6,7,8-tetrahydroquinazolin-2-yl]amino}cyclohexyl)acetamide] | 1 (Class 1: The value of percent of control at 10^−7 M was less than 40% or the value of IC50 was less than 50 nM.)
CN(C)c1nc(N[C@H]2CC[C@@H](NC(=O)c3ccc(-c4ccc(Cl)cc4[N+](=O)[O-])o3)CC2)nc2c1CCCC2 [compound 952, 5-(4-chloro-2-nitrophenyl)-N-(cis-4-{[4-(dimethylamino)-5,6,7,8-tetrahydroquinazolin-2-yl]amino}cyclohexyl)-2-furamide] | 1 (Class 1: The value of percent of control at 10^−7 M was less than 40% or the value of IC50 was less than 50 nM.)
CN(C)c1nc(N[C@H]2CC[C@@H](NC(=O)c3ccc(Cl)s3)CC2)nc2c1CCCC2 [compound 953] | 1 (Class 1: The value of percent of control at 10^−7 M was less than 40% or the value of IC50 was less than 50 nM.)
CN(C)c1nc(N[C@H]2CC[C@@H](NC(=O)CCc3ccccc3O)CC2)nc2c1CCCC2 [compound 955] | 2 (Class 2: The value of percent of control at 10^−7 M was from 40% to 60% or the value of IC′50 was from 50 nM to 200 nM.)
CN(C)c1nc(N[C@H]2CC[C@@H](NC(=O)c3ccc(I)o3)CC2)nc2c1CCCC2 [compound 956] | 1 (Class 1: The value of percent of control at 10^−7 M was less than 40% or the value of IC50 was less than 50 nM.)

From US20050197350A1, “Novel quinoline, tetrahydroquinazoline, and pyrimidine derivatives and methods of treatment related to the use thereof” (TAISHO PHARMACEUTICAL CO., LTD., priority 2003, published 2005)
